# In PMC4287973, “Tumor cell-specific inhibition of MYC function using small molecule inhibitors of the HUWE1 ubiquitin ligase” (EMBO Molecular Medicine, 2014):
# Where two headings read alike, the source gives them in different places.
# Columns and labels:
# [1] = target: T1, HUWE1 (Homo sapiens, UniProt Q7Z6Z7); test: In vivo (cellular) ubiquitination of MCL1 by ectopic HA-HUWE1 in HeLa cells; format: cell-based; settings: HeLa cells transfected with MCL1, His-ubiquitin, inhibitor 16 hrs, read-out: IC50 relative MCL1 ubiquitination
# T1 construct: expressed in transfected cells; host or cells: HeLa
# Description: HeLa cells were transfected with plasmids expressing MCL1, His-ubiquitin, and HA-HUWE1. […] After lysis, ubiquitin-modified proteins were recovered by Ni-NTA-Agarose and immunoblots of the eluates were probed with an antibody against MCL1. […] At the same time, cells were irradiated with 500 J/m^2 UVB and harvested after indicated time points. Immunoblots of the lysates were probed with antibodies recognizing either MCL1 or CDK2 as control. Quantification of the MCL1 protein levels for the according experiment is shown directly below the immunoblots. Diagrams below the immunoblots show mean protein levels ± SD (n = 5). From the data, the half-life of the MCL1 protein was determined with P-values calculated using a Student's t-test. • Effects of HUWE1 inhibition on levels of TopBP1. […] Cell lysates were fractionated in chromatin-bound and soluble non-chromatin-bound fractions. Immunoblots of the soluble fraction were incubated with indicated antibodies.
# To test the efficacy of both compounds in tissue culture, we initially confirmed observations that HUWE1 ubiquitinates and degrades MCL1 in response to DNA damage (Zhong et al, [2005]). Consistent with these published data, steady-state levels of MCL1 decreased rapidly upon UV irradiation of U2OS cells and depletion of HUWE1 both enhanced steady-state levels of MCL1 and retarded the decrease upon UV irradiation (Supplementary Fig S4A). […]
# [2] = tested on: Ls174T cells; test: Crystal violet growth assay of control and partially HUWE1-depleted Ls174T cells (IC50 shift); format: cell-based; settings: Homo sapiens, 120 h, crystal violet after five days
# Description: Partial shRNA-mediated depletion of HUWE1 led to a moderate, but highly significant reduction in IC50 value for growth inhibition by BI8622, arguing that growth inhibition is an on-target effect of the inhibitor (Supplementary Fig S6). […] Incubation with either compound retarded passage of Ls174T cells through all phases of the cell cycle, with the effect being strongest for G1. In contrast to colon carcinoma cells, HUWE1 is not required for proliferation of embryonic stem (ES) cells and deletion of HUWE1 instead delays the decrease of N-MYC levels that occurs upon removal of leukemia inhibitory factor (LIF) from the medium (Zhao et al, [2008]). […] Furthermore, inhibition of HUWE1 in crypt cultures of normal intestinal epithelial cells had no effect on expression of MYC target genes (Fig4G).
# HCT116, HEK293T, HeLa, HT29, ES, Phoenix, and U2OS cells were cultivated in DMEM (Sigma). Ls174T and SW480 cells were grown in RPMI 1640 (Sigma). All media were supplemented with 10% FBS (Biochrom AG) and 1% penicillin/streptomycin (Sigma). Medium for ES cells contained 15% FBS, 1% NEAA (Gibco), 6 μg/ml LIF, and 0.05 mM β-mercaptoethanol (Sigma). […] Quantification of crystal violet staining was performed by extracting dye with 10% acetic acid and measuring absorbance at 590 nm. IC50 values were calculated using the four parameter logistic equation model. […]
# C. Quantification of the staining. […]
# T1 sequence (Q7Z6Z7 whole entry): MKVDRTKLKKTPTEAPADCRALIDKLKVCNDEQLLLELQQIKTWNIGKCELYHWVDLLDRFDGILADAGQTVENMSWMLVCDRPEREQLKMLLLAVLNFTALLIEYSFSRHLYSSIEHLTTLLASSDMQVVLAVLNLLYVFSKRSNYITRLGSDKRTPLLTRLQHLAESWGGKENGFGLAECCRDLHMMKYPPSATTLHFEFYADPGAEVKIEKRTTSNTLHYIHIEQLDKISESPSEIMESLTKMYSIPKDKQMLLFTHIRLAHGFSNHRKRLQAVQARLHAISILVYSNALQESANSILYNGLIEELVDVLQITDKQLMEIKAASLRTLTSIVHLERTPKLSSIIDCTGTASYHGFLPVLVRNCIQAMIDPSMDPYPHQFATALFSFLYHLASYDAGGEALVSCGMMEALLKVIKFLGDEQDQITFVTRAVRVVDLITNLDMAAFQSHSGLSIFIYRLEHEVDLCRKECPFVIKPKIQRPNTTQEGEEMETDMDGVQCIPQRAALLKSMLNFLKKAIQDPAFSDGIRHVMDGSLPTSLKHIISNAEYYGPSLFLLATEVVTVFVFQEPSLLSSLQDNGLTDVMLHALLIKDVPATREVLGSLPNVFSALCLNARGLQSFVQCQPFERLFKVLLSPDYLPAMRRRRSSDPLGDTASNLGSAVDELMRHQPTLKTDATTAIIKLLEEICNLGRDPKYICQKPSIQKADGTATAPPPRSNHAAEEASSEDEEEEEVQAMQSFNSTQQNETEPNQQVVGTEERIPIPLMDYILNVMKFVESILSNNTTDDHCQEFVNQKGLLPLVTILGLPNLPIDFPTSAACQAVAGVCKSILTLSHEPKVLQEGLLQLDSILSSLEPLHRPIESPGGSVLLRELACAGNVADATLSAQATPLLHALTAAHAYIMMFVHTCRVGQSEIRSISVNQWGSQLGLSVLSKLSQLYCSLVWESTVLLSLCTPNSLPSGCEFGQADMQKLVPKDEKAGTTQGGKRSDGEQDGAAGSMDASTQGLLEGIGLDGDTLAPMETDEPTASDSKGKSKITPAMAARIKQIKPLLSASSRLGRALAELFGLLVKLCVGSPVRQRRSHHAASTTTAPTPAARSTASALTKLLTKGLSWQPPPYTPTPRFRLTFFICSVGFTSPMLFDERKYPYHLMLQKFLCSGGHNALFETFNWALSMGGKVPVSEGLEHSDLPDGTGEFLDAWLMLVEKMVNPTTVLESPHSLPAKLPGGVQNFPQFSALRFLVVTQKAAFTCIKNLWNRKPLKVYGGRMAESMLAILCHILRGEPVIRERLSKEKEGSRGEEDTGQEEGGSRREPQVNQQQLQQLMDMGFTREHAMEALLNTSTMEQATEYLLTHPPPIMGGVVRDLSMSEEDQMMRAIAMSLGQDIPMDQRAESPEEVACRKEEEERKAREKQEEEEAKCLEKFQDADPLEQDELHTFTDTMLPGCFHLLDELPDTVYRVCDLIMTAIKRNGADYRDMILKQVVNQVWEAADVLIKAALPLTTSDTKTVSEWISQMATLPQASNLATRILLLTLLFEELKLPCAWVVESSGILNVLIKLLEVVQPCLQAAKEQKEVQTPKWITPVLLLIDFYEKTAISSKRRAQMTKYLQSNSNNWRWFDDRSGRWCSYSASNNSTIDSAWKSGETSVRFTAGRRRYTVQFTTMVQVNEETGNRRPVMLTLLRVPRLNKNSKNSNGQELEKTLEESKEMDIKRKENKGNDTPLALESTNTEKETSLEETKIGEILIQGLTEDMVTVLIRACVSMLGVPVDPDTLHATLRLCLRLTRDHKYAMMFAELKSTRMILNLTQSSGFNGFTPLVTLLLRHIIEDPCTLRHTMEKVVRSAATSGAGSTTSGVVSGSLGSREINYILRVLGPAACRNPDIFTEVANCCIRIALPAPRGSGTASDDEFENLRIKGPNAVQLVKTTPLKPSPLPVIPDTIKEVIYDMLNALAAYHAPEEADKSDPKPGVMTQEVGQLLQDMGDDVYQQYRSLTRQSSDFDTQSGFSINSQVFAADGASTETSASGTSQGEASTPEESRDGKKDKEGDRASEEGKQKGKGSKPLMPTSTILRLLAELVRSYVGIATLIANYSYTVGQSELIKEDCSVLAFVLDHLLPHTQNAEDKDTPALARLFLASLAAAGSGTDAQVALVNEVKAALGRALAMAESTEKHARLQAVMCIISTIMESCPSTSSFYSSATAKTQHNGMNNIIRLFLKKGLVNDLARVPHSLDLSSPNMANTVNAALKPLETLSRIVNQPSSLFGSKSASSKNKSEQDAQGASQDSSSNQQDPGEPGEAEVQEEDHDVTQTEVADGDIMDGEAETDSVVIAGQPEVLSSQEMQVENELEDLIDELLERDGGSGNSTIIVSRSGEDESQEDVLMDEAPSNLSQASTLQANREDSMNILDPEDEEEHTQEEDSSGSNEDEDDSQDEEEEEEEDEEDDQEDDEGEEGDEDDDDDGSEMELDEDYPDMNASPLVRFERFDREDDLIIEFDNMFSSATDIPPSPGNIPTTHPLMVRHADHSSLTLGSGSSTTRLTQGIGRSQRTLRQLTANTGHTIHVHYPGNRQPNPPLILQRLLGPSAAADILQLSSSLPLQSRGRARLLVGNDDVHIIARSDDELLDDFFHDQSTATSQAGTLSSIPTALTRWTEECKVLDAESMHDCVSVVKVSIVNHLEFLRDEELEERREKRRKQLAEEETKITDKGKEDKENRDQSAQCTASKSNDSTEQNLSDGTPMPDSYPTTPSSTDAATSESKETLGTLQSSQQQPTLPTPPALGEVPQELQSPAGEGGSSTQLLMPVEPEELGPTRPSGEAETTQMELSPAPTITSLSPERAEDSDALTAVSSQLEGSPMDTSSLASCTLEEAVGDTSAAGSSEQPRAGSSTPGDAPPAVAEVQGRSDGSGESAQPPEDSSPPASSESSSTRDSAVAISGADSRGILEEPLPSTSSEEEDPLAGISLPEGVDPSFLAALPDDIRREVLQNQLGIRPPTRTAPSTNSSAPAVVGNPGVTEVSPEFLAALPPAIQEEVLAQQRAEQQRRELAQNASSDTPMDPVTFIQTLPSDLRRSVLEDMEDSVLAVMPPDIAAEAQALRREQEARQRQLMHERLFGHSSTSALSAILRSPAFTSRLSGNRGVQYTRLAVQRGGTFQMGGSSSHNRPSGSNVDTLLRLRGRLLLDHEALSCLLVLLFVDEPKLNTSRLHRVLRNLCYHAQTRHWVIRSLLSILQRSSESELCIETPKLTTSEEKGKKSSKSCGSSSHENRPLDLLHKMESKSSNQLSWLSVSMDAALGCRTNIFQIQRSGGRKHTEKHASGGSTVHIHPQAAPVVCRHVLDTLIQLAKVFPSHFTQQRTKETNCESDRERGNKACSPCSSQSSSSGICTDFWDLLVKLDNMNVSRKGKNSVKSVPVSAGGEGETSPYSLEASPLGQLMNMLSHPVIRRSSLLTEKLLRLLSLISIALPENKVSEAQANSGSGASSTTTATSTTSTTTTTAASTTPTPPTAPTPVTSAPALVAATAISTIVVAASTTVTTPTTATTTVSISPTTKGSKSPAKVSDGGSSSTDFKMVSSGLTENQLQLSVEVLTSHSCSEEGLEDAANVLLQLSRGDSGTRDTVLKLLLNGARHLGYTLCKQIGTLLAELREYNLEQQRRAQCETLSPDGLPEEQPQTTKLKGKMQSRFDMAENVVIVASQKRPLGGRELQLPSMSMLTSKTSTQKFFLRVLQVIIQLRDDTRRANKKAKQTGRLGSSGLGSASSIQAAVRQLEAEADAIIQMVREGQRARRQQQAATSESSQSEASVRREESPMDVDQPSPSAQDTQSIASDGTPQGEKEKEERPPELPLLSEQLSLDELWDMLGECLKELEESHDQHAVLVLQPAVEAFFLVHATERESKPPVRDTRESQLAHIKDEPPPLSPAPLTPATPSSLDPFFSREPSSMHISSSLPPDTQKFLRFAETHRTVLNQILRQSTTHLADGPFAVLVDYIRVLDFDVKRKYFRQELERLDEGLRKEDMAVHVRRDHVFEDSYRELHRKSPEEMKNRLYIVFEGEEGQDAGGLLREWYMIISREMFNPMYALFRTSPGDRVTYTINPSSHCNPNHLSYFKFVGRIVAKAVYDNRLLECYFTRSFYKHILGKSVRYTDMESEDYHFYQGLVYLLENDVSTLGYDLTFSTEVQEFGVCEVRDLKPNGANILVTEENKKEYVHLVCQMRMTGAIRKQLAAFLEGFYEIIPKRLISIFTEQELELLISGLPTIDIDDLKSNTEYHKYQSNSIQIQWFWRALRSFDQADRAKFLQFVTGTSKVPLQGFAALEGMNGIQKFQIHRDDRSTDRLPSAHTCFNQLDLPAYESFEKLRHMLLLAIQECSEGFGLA
smiles,measurement,setting,value
Cc1c(C(=O)Nc2ccc(CN)cc2)ncnc1N1CCC(C#N)(c2ccccc2)CC1 [BI8622],IC50,[1],6.8 µM
same,IC50,"[2]; control Ls174T cells, read-out: IC50 growth inhibition, ctr cells",8.1 µM
same,IC50,"[2]; partially HUWE1-depleted Ls174T cells, read-out: IC50 growth inhibition, shHUWE1 cells",6.5 µM
